This is an account of results in US7250442B2, “Dihydroindol-2-one derivatives as steroid hormone nuclear receptor modulators” (Eli Lilly and Company, priority 2003, dated 2007).

This test has as its target T1, human MR (Homo sapiens, UniProt P08235).
T1 construct: The full length human MR gene is cloned from a human kidney or human brain cDNA library; made in house; host or cells: Sf9 insect cells (baculovirus, pAcHLT transfer vector)
T1 sequence (P08235 1-984): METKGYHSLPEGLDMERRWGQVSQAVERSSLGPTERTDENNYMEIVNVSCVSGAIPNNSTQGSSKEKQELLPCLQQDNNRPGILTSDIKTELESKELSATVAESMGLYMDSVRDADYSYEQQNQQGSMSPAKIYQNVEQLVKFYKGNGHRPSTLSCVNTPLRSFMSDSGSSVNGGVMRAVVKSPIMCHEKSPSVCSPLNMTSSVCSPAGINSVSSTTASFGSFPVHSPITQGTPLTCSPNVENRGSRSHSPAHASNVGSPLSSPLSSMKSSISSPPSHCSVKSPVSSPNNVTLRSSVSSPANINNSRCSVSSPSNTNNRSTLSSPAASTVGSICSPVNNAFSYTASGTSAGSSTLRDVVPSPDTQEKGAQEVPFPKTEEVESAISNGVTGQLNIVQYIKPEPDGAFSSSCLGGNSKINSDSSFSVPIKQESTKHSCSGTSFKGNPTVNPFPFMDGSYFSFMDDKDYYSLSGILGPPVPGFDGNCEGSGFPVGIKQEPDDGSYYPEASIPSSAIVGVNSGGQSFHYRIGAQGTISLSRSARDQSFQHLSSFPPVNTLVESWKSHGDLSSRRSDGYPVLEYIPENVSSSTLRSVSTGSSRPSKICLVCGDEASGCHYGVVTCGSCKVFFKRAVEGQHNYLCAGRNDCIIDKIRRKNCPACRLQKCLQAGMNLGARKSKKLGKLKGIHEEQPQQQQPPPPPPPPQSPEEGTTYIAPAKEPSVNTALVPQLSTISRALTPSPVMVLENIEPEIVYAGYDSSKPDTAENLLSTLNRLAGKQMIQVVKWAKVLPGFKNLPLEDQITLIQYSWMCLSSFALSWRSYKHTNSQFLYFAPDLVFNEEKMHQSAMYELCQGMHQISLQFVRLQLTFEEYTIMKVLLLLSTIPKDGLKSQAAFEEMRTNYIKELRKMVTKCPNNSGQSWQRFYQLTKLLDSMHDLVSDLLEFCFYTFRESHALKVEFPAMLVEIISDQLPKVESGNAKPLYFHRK
In words: Mineralocorticoid Receptor Binding Assay ([3H]-aldosterone displacement). The note with it: full length human MR expressed in Sf9 cells, 0.5 nM [3H]-aldosterone. The essentials:
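Full-length human MR expressed in Sf9 cells; lysate (20-25 μg protein) incubated with 0.5 nM [3H]-aldosterone and test compound in molybdate/Tris/phosphate/glycerol buffer pH 7.5, 16 h at 4 °C. Bound ligand measured by filtration and scintillation counting; IC50 converted to Ki via Cheng-Prusoff.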

Compound `COc1ccccc1C(=O)CN1C(=O)C(c2cc(C)c(O)c(C)c2)(c2cc(C)c(O)c(C)c2)c2ccccc21` [Example 44, 3,3-Bis-(4-hydroxy-3,5-dimethyl-phenyl)-1-[2-(2-methoxy-phenyl)-2-oxo-ethyl]-1,3-dihydro-indol-2-one] gave a Ki not above 500 nM.

As for `Cc1cc(C2(c3cc(C)c(O)c(C)c3)C(=O)N(Cc3ccc(Cl)c(Cl)c3)c3ccccc32)cc(C)c1O` [Example 52, 1-(3,4-Dichloro-benzyl)-3,3-bis-(4-hydroxy-3,5-dimethyl-phenyl)-1,3-dihydro-indol-2-one], the Ki was not above 500 nM.
